# Laboratory results as given in patent publication US8481459B2, “Chemical inhibitors of ethylene biosynthesis” (Academia Sinica, priority 2010, dated 2013).
# Test system: gene expression in etiolated eto1-4 seedlings
# Experiment: Transcriptional profiling (ATH1 GeneChip microarray) of etiolated eto1-4 seedlings
# Format: in vivo, Arabidopsis thaliana
# Protocol: For chemical treatments, seeds were sown on 0.5×MS agar medium supplemented with 10 μM chemicals (AVG, compounds 9393, 9370, and 7303) or DMSO (as control). Arabidopsis seeds were stratified in the dark at 4° C. for 4 days, then germinated in the dark for 3 days at 22° C. Approximately 2,000 etiolated seedlings of the wild type or eto1-4 were used to collect tissues for preparation of total RNA in each microarray experiment with Arabidopsis ATH1 GeneChip (Affymetrix). Extraction of RNA followed an established protocol (Chang, et al. (1993) Plant Mol. Biol. Rep. 11, 113-117). Total RNA (10 μg) was used to prepare biotinylated cRNA for hybridization to ATH1 GeneChip in the experiments disclosed herein. Experiments were repeated by 2 independent biological duplicates, and candidate genes present in both experiments were selected for further analysis. The MASS method was used for data analysis and normalization by all sample medium. Candidate genes were selected by the following criteria. First, genes with 1.5-fold differential expression between the wild type and eto1-4 were selected as the master gene pool, which was then used for comparison in treatments with AVG and individual exemplary compounds. Data were presented in hierarchical clustering and Venn diagram format. Agilent GeneSpring GX and Bioconductor software were used to analyze the expression profile data. Gene Ontology descriptions were generated by GeneSpring GX and further referred to the TAR GO database. Raw data are available in the GEO database (http://www.ncbi.nlm.nih.gov/geo) with Accession no. GSE20897.
# The filtered and normalized expression data set from 22810 probes on the ATH1 Genechip was used for hierarchical clustering of gene expression profiles for comparison between AVG and the exemplary invention compounds in eto1-4. It was identified that 1,446 genes show at least 1.5-fold difference in expression between the WT and eto1-4 and used them as the master gene pool for clustering analysis (FIG. 7A). […] These genes likely contribute to the etiolated phenotype of eto1-4 by responding to elevated endogenous ethylene. To determine whether the exemplary compounds have specific r overlapping functions with AVG to suppress the eto1-4 phenotype, genes that are regulated by individual exemplary invention compounds and AVG for Venn diagram analysis were clustered (FIG. 7B). More than 63% of genes (356/561 for compound 9393; 389/561 for compound 9370; 399/561 for compound 7303; FIG. 7B) with expression associated with AVG were co-regulated by the exemplary invention compounds, which indicates an overlap function in suppression of the ethylene phenotype in eto1-4. […] Next genes co-regulated by all of the exemplary invention compounds and AVG were examined by performing a clustering analysis using the co-regulated genes identified in FIG. 7B: 356 (compound 9393 vs AVG), 389 (compound 9370 vs AVG) and 399 genes (compound 7303 vs AVG). It was uncovered that 276 genes were co-regulated by all of the exemplary invention compounds and AVG (FIG. 7C and Table 2). On the basis of GO descriptions generated by Gene Spring GX and TAIR database, the 276 genes were divided into subgroups related to their biological functions (Table 2). […] In addition, stress- and pathogenesis-related genes were among the co-regulated genes, possibly because ethylene is involved in both biotic and abiotic stresses.
# Genes (1446 non-redundant loci) were selected by 1.5-fold differential expression between eto1-4 and WT as the master pool for analysis. These genes were used for comparison between chemical treatments by AVG and the exemplary invention compounds. The finalized 276 genes that are co-regulated by AVG and all of the exemplary invention compounds are shown. Locus ID also present in Nemhauser et al. (Nemhauser, et al. (2006) Cell 126, 467-475).
# [1] = of 1446 genes differentially expressed between WT and eto1-4, 10 μM
# [2] = ratio eto1-4 treated to eto1-4 (no treatment)
structure (smiles),measurement,setting,value
COc1ccc(C2CC(=O)c3cnc(Nc4ccccc4)nc3C2)cc1 (centres unmarked) [Compound 7303],number of genes co-regulated with AVG,"of 561 genes associated with AVG, 10 μM",399 genes
same,number of genes regulated (expression reverted close to WT),[1],650 genes
same,percentage of genes regulated (expression reverted close to WT),[1],45.0%
same,"number of genes regulated specifically, not related to AVG treatment","of all genes regulated by the compound (629, 728, 650), 10 μM",251 genes
same,"Signal Fold Change AT1G03457, unknown biological function",[2],3.04
same,"Signal Fold Change AT1G03660, unknown biological function",[2],1.59
same,Signal Fold Change AT1G05010 ACC oxidase,[2],0.30
same,Signal Fold Change AT1G05760 jacalin lectin protein,[2],3.70
same,Signal Fold Change AT1G06720 expressed protein,[2],1.26
same,"Signal Fold Change AT1G07280, unknown biological function",[2],0.37
same,Signal Fold Change AT1G07560 leucine-rich repeat protein kinase,[2],1.99
same,Signal Fold Change AT1G08650 phosphoenolpyruvate carboxylase kinase,[2],3.40
same,Signal Fold Change AT1G08990 glycogenin glucosyltransferase,[2],2.60
same,Signal Fold Change AT1G09530 phytochrome interacting factor 3,[2],0.29
same,Signal Fold Change AT1G10760 starch excess protein (SEX1),[2],0.43
same,"Signal Fold Change AT1G13430, response to cytokinin stimulus, sulfotransferase protein",[2],0.34
same,Signal Fold Change AT1G14540 anionic peroxidase,[2],0.42
same,Signal Fold Change AT1G15380 lactoylglutathione lyase,[2],2.99
same,"Signal Fold Change AT1G17970, unknown biological function",[2],2.35
same,Signal Fold Change AT1G18880 proton-dependent oligopeptide transport (POT) protein,[2],2.51
same,"Signal Fold Change AT1G20190, cell wall organization and biogenesis, expansin (EXP11)",[2],0.43
same,Signal Fold Change AT1G22740 Ras-related protein (RAB7),[2],3.52
same,"Signal Fold Change AT1G23060, unknown biological function",[2],0.35
same,"Signal Fold Change AT1G26930, unknown biological function",[2],0.40
same,Signal Fold Change AT1G27380 p21-rho-binding domain-containing protein,[2],2.14
same,"Signal Fold Change AT1G29520, unknown biological function",[2],2.27
same,"Signal Fold Change AT1G30750, unknown biological function",[2],2.87
same,Signal Fold Change AT1G31710 copper amine oxidase,[2],5.43
same,Signal Fold Change AT1G32410 vacuolar protein sorting 55 protein,[2],1.75
same,Signal Fold Change AT1G32560 late embryogenesis abundant group 1 domain-containing protein,[2],1.89
same,"Signal Fold Change AT1G33470, unknown biological function",[2],2.38
same,"Signal Fold Change AT1G33790, unknown biological function",[2],0.21
same,"Signal Fold Change AT1G34040, unknown biological function",[2],2.17
same,"Signal Fold Change AT1G35350, unknown biological function",[2],4.37
same,"Signal Fold Change AT1G35612, unknown biological function",[2],3.19
same,"Signal Fold Change AT1G42470, unknown biological function",[2],4.79
same,"Signal Fold Change AT1G44800, unknown biological function",[2],2.25
same,Signal Fold Change AT1G44830 AP2-containing transcription factor,[2],0.38
same,Signal Fold Change AT1G48480 leucine-rich repeat trans-membrane protein kinase,[2],3.43
same,Signal Fold Change AT1G49660 expressed protein,[2],0.47
same,Signal Fold Change AT1G50560 cytochrome P450,[2],2.50
same,Signal Fold Change AT1G52830 auxin-responsive protein,[2],4.43
same,Signal Fold Change AT1G56010 transcription activator NAC1,[2],2.97
same,"Signal Fold Change AT1G56020, unknown biological function",[2],0.49
same,"Signal Fold Change AT1G58070, unknown biological function",[2],2.37
same,"Signal Fold Change AT1G59590, unknown biological function",[2],3.94
same,Signal Fold Change AT1G59740 proton-dependent oligopeptide transport (POT) protein,[2],0.32
same,Signal Fold Change AT1G62290 aspartyl protease protein,[2],0.38
same,Signal Fold Change AT1G62510 lipid transfer protein,[2],2.20
same,"Signal Fold Change AT1G62620, unknown biological function",[2],3.52
same,Signal Fold Change AT1G64200 V-ATPase E subunit,[2],2.73
same,"Signal Fold Change AT1G65510, unknown biological function",[2],4.19
same,"Signal Fold Change AT1G65920, unknown biological function",[2],0.36
same,Signal Fold Change AT1G66230 myb transcription factor (MYB20),[2],3.14
same,Signal Fold Change AT1G67030 zinc finger (C2H2 type) protein,[2],10.77
same,"Signal Fold Change AT1G68230, unknown biological function",[2],2.59
same,Signal Fold Change AT1G68520 zinc finger (B-box type) protein,[2],1.15
same,Signal Fold Change AT1G69570 Dof-type zinc finger-containing protein,[2],6.31
same,Signal Fold Change AT1G70210 cyclin delta-1,[2],3.72
same,Signal Fold Change AT1G70850 Bet v I allergen protein,[2],22.18
same,Signal Fold Change AT1G70890 major latex protein,[2],5.05
same,Signal Fold Change AT1G71030 myb transcription factor (MYB2),[2],8.09
same,"Signal Fold Change AT1G71740, unknown biological function",[2],3.04
same,Signal Fold Change AT1G72230 plastocyanin like protein,[2],2.98
same,Signal Fold Change AT1G73220 sugar transporter protein,[2],5.76
same,Signal Fold Change AT1G73300 serine carboxypeptidase S10 protein,[2],1.69
same,Signal Fold Change AT1G73310 serine carboxypeptidase S10 protein,[2],4.07
same,Signal Fold Change AT1G73330 protease inhibitor,[2],31.27
same,Signal Fold Change AT1G73590 auxin efflux carrier protein,[2],2.03
same,"Signal Fold Change AT1G73640, small GTPase mediated signal transduction, Ras-related GTP-binding protein",[2],2.12
same,Signal Fold Change AT1G73830 bHLH protein,[2],0.20
same,"Signal Fold Change AT1G75500, unknown biological function",[2],3.18
same,"Signal Fold Change AT1G76220, unknown biological function",[2],4.28
same,"Signal Fold Change AT1G76500, photomorphogenesis, DNA-binding protein",[2],0.38
same,Signal Fold Change AT1G76540 cell division control protein,[2],2.97
same,"Signal Fold Change AT1G76790, unknown biological function",[2],3.71
same,Signal Fold Change AT1G78240 dehydration-responsive protein,[2],0.54
same,Signal Fold Change AT1G80380 phosphoribulokinase,[2],2.20
same,"Signal Fold Change AT2G01910, microtubule nucleation, microtubule associated protein (MAP65/ASE1) protein",[2],2.92
same,Signal Fold Change AT2G02820 myb transcription factor (MYB88),[2],4.90
same,Signal Fold Change AT2G02850 plantacyanin,[2],0.15
same,Signal Fold Change AT2G16580 auxin-responsive protein,[2],2.29
same,"Signal Fold Change AT2G16990, unknown biological function",[2],3.14
same,Signal Fold Change AT2G19590 ACC oxidase,[2],0.28
same,"Signal Fold Change AT2G19970, unknown biological function",[2],3.39
same,"Signal Fold Change AT2G20080, unknown biological function",[2],5.75
same,"Signal Fold Change AT2G20670, unknown biological function",[2],4.29
same,"Signal Fold Change AT2G21820, unknown biological function",[2],1.33
same,Signal Fold Change AT2G21880 Ras-related GTP-binding protein,[2],4.62
same,Signal Fold Change AT2G22860 phytosulfokines 2 (PSK2),[2],2.10
same,Signal Fold Change AT2G24150 expressed protein (response to hormone stimulus),[2],1.90
same,Signal Fold Change AT2G25900 zinc finger (CCCH-type) protein,[2],1.73
same,Signal Fold Change AT2G26070 expressed protein (response to ethylene stimulus),[2],0.28
same,Signal Fold Change AT2G26440 pectinesterase protein,[2],0.27
same,Signal Fold Change AT2G26740 epoxide hydrolase,[2],0.26
same,Signal Fold Change AT2G27140 heat shock protein,[2],2.74
same,"Signal Fold Change AT2G27370, unknown biological function",[2],2.51
same,"Signal Fold Change AT2G28305, unknown biological function",[2],2.57
same,"Signal Fold Change AT2G28410, unknown biological function",[2],2.79
same,Signal Fold Change AT2G29340 short-chain dehydrogenase,[2],0.39
same,"Signal Fold Change AT2G29440, toxin catabolic process, glutathione S-transferase",[2],0.26
same,Signal Fold Change AT2G30360 CBL-interacting protein kinase 11 (CIPK11),[2],3.63
same,Signal Fold Change AT2G33380 calcium-binding RD20 protein,[2],0.22
same,"Signal Fold Change AT2G33990, unknown biological function",[2],2.69
same,"Signal Fold Change AT2G34300, unknown biological function",[2],0.39
same,Signal Fold Change AT2G34500 cytochrome P450,[2],8.32
same,"Signal Fold Change AT2G34510, unknown biological function",[2],2.21
same,"Signal Fold Change AT2G34700, unknown biological function",[2],0.31
same,Signal Fold Change AT2G35300 late embryogenesis abundant group 1 domain-containing protein,[2],2.86
same,Signal Fold Change AT2G35710 glycogenin glucosyltransferase,[2],2.25
same,Signal Fold Change AT2G36350 protein kinase,[2],0.54
same,"Signal Fold Change AT2G36410, unknown biological function",[2],3.05
same,Signal Fold Change AT2G37130 peroxidase 21,[2],2.23
same,"Signal Fold Change AT2G38760, unknown biological function",[2],5.36
same,"Signal Fold Change AT2G38790, unknown biological function",[2],3.21
same,Signal Fold Change AT2G39010 aquaporin,[2],1.95
same,"Signal Fold Change AT2G39310, unknown biological function",[2],3.40
same,"Signal Fold Change AT2G39980, unknown biological function",[2],0.25
same,Signal Fold Change AT2G40420 amino acid transporter,[2],3.56
same,"Signal Fold Change AT2G41090, unknown biological function",[2],0.11
same,"Signal Fold Change AT2G41230, unknown biological function",[2],0.05
same,"Signal Fold Change AT2G42320, unknown biological function",[2],0.54
same,Signal Fold Change AT2G43050 pectinesterase protein,[2],3.42
same,Signal Fold Change AT2G43535 trypsin inhibitor,[2],6.32
same,Signal Fold Change AT2G44110 seven transmembrane MLO protein,[2],0.43
same,Signal Fold Change AT2G44130 kelch repeat containing F-box protein,[2],4.62
same,Signal Fold Change AT2G47510 fumarate hydratase,[2],0.48
same,Signal Fold Change AT2G47550 pectinesterase protein,[2],0.49
same,"Signal Fold Change AT2G48030, unknown biological function",[2],2.22
same,Signal Fold Change AT3G04010 glycosyl hydrolase,[2],3.80
same,"Signal Fold Change AT3G05990, signal transduction, phosphodiesterase leucine-rich repeat protein",[2],2.33
same,"Signal Fold Change AT3G09020, unknown biological function",[2],3.42
same,Signal Fold Change AT3G09780 protein kinase,[2],0.40
same,"Signal Fold Change AT3G10080, unknown biological function",[2],2.14
same,Signal Fold Change AT3G10340 phenylalanine ammonia-lyase,[2],2.63
same,"Signal Fold Change AT3G11550, unknown biological function",[2],2.97
same,"Signal Fold Change AT3G12030, DNA repair, expressed protein",[2],2.06
same,Signal Fold Change AT3G12500 basic endocexemplary inase,[2],3.58
same,"Signal Fold Change AT3G13980, unknown biological function",[2],6.58
same,Signal Fold Change AT3G14370 protein kinase,[2],0.36
